Assay results: PubChem BioAssay (NCI)
Values joined by “and” are separate entries in the source; they are usually repeats but may differ in a detail not shown here. Equal values may be shown once.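 Step 1: Grow cells in 96-well plates. Step 2: Expose to compound for 48 hours at 5 concentrations. Step 3: Interpolate endpoints linearly; if unreached, use highest concentration. At the GI50, growth is halved. TGI marks complete inhibition of growth.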

Columns and labels:
Assay in all cases: inhibition of tumour cell growth, NCI panel, 48 h
SK-MEL-5 melanoma = test system: SK-MEL-5 melanoma
SR leukemia = test system: SR leukemia
SW-620 colon = test system: SW-620 colon
OVCAR-8 ovarian = test system: OVCAR-8 ovarian
SN12C renal = test system: SN12C renal
HL-60(TB) leukemia = test system: HL-60(TB) leukemia
MOLT-4 leukemia = test system: MOLT-4 leukemia
UO-31 renal = test system: UO-31 renal
MDA-MB-231 breast = test system: MDA-MB-231 breast
MALME-3M melanoma = test system: MALME-3M melanoma

Compound | TGI (SK-MEL-5 melanoma) | TGI (SR leukemia) | TGI (SW-620 colon) | TGI (OVCAR-8 ovarian) | TGI (SN12C renal) | TGI (HL-60(TB) leukemia) | TGI (MOLT-4 leukemia) | TGI (UO-31 renal) | GI50 (SK-MEL-5 melanoma) | GI50 (SW-620 colon) | GI50 (OVCAR-8 ovarian) | GI50 (SN12C renal) | GI50 (MDA-MB-231 breast) | TGI (MDA-MB-231 breast) | GI50 (HL-60(TB) leukemia) | GI50 (MALME-3M melanoma) | TGI (MALME-3M melanoma) | GI50 (MOLT-4 leukemia) | GI50 (SR leukemia) | GI50 (UO-31 renal)
COc1ccc2c(c1)C(=O)N1CCOC1C2C(=O)O (configuration not stated) | > 100 µM | > 100 µM | > 100 µM | > 100 µM | > 100 µM | > 100 µM | > 100 µM | > 100 µM | – | – | – | – | – | – | – | – | – | – | – | –
Nc1ncnc2c1ncn2Cc1ccc(C23CC4CC(CC(C4)C2)C3)c(OCc2cc(F)c(F)cc2F)c1 | > 100 µM | – | > 100 µM | > 100 µM | 67.5 µM | 10.7 µM | 7.97 µM | – | 0.955 µM | 7.25 µM | 9.66 µM | 11.7 µM | 6.39 µM | > 100 µM | 3.06 µM | 4.59 µM | > 100 µM | 2.69 µM | – | –
C/C(=N\NC(N)=S)c1cc(C)c(C)cc1C | > 100 µM | > 100 µM | > 100 µM | > 100 µM | > 100 µM | 65.5 µM | 84.5 µM | > 100 µM | – | – | – | – | – | – | – | – | 92 µM | – | – | –
CS(=O)(=O)OCC1OC(n2ccc(NC(=O)c3ccccc3)nc2=O)CC1OS(C)(=O)=O (configuration not stated) | > 100 µM | > 100 µM | > 100 µM | > 100 µM | > 100 µM | > 100 µM | > 100 µM | – | – | – | – | – | – | > 100 µM | – | – | – | – | – | –
C/C=C/C1=C(Cl)C(=O)[C@@H](Cl)[C@@]1(O)C(=O)OC | 16.5 µM | 21.7 µM | 3.1 µM | 6.45 µM | 7.15 µM | 4.28 µM | 12.9 µM | 10.2 µM | – | – | – | – | – | – | – | – | 6.21 µM | – | – | –
O=C1C2C(C(=O)[N]1[Hg][c]1cccs1)C1(Cl)C(Cl)=C(Cl)C2(Cl)C1(Cl)Cl (configuration not stated) | 3.06 µM | – | 3.08 µM | – | – | 4.63 µM | 5.01 µM | 3.21 µM | 1.55 µM | 1.02 µM | – | – | – | – | 1.29 µM | 1.22 µM | 2.79 µM | 0.371 µM | 0.146 µM | 1.74 µM
O=C(CCC(=O)Nc1cccc(Cl)c1)CC(=O)c1ccc(F)cc1 | – | > 100 µM | > 100 µM | > 100 µM | > 100 µM | > 100 µM | > 100 µM | > 100 µM | – | – | – | – | – | – | – | – | > 100 µM | – | – | –
CC(C)(O)C#Cc1ccc(/C=C/C(=O)c2ccccc2)s1 | 30.5 µM | 13.8 µM | 40.9 µM | 29.9 µM | 32.1 µM | – | 43.6 µM | 27.6 µM | 16.1 µM | 19.5 µM | 15.9 µM | 18.1 µM | 16.7 µM | 32.3 µM | – | 16.4 µM | 36.1 µM | 16.8 µM | 3.85 µM | 14.5 µM
COc1cc2c(cc1O)-c1c(cnn1-c1ccc([N+](=O)[O-])cc1)CCC2 | 26.2 µM | – | 91.3 µM | 50.3 µM | 14.7 µM | – | 6.2 µM | – | – | – | – | – | – | 33.2 µM | – | – | 29.2 µM | – | – | –
O=C1c2cccnc2C(=O)C2C3C=CC(C3)C12 (configuration not stated) | 23.2 µM | 6.65 µM | 28.2 µM | 30 µM | 29.2 µM | – | – | 28.1 µM | – | – | – | – | – | 9.97 µM | – | – | 29.5 µM | – | – | –
O=c1c2ccccc2c(Br)c(Br)c2ccccc12 | 31.6 µM | – | 3.13 µM | 34.2 µM | 32.8 µM | – | – | 3.44 µM | 13.6 µM | 1.09 µM | 13.9 µM | 15.8 µM | 19.9 µM | 50.7 µM | – | 2.66 µM | 7.65 µM | – | – | 1.9 µM
COc1cc(-c2nc3sccn3c2-c2ccnc(NCCNS(=O)(=O)c3ccc(Cl)cc3)n2)ccc1F | 4.19 µM | > 100 µM | > 100 µM | > 100 µM | > 100 µM | > 100 µM | > 100 µM | > 100 µM | 1.87 µM | 10.8 µM | 2.71 µM | 4.11 µM | – | – | 3.74 µM | 3.35 µM | > 100 µM | 1.42 µM | 3.94 µM | 2.72 µM
COc1cc2c3c(n(CCCN(CCN)CCCn4c5c(c6cc(OC)c(OC)cc6c4=O)C(=O)c4cc6c(cc4-5)OCO6)c(=O)c2cc1OC)-c1cc2c(cc1C3=O)OCO2 | 3.34 µM | – | > 70.7 µM | > 42.2 µM | 0.755 µM | – | – | 8.18 µM | 1.04 µM | 0.719 µM | 1.53 µM | 0.141 µM | 3.3 µM | 17.3 µM | – | – | – | 0.0846 µM | – | 0.892 µM
CC(=O)N1c2ccccc2C2=CC3C4C(=O)N(c5ccccc5)C(=O)C4C21C1C(=O)N(c2ccccc2)C(=O)C31 (configuration not stated) | – | > 100 µM | > 100 µM | > 100 µM | > 100 µM | 58.8 µM | > 100 µM | > 100 µM | – | – | – | – | – | – | – | – | > 100 µM | – | – | –
CC(=O)Oc1cc(C)c2c(c1OC(C)=O)CC1(O2)[C@@H](C)CCC2[C@@]3(C)CC[C@H](OC(C)=O)C(C)(C)C3CC[C@]21C (some centres not stated) | 10.7 µM | 11.3 µM | 12.3 µM | 13.7 µM | 11.8 µM | – | 42.2 µM | 3.93 µM | – | – | – | – | – | – | – | – | – | – | – | –
S=C(N/N=C(/c1ccccc1)c1ccccn1)N1CCCCC1 | 1.38 µM and 1.56 µM | < 0.001 µM | 1.23 µM and 2.96 µM | 1.96 µM and 1.69 µM | 2.18 µM and 2.68 µM | – | – | 2.01 µM and 1.54 µM | – | < 0.001 µM | < 0.001 µM | 0.171 µM | < 0.001 µM | 2.42 µM and 2.21 µM | – | 0.00735 µM | 2.27 µM and 2.2 µM | < 0.001 µM | < 0.001 µM | 0.468 µM
O=S(=O)(N/N=C/c1ccc(Cl)c(Cl)c1)c1ccccc1 | > 100 µM | > 100 µM | > 100 µM | > 100 µM | > 100 µM | > 100 µM | 84.4 µM | 94.2 µM | – | – | – | – | – | – | – | – | > 100 µM | – | – | –
CC(=O)CCc1ccc(OC2OC(COC(=O)c3cc(O)c(O)c(O)c3)C(O)C(O)C2OC(=O)/C=C/c2ccccc2)cc1 (configuration not stated) | 36.1 µM | – | 97.5 µM | 55 µM | 44.4 µM | – | 48.7 µM | > 100 µM | 19.1 µM | 35.1 µM | 21.2 µM | 20.4 µM | 19.6 µM | 44.5 µM | – | 26.8 µM | 46.2 µM | 17.2 µM | – | 30.2 µM
Nc1nc(N)c(Cn2ccnc2)c(=O)[nH]1 | > 100 µM | > 100 µM | – | > 100 µM | > 100 µM | – | – | > 100 µM | – | – | – | – | – | > 100 µM | – | – | > 100 µM | – | – | –
